In series [1] the target is T1, CARM1 (Homo sapiens, UniProt Q86X55).
T1 construct: FLAG-CARM1 (amino acids 2–585)-His for biochemical studies was expressed in 293 F mammalian cells; made in house; host or cells: 293F mammalian cells
T1 sequence (Q86X55 2-585 isoform Q86X55-1): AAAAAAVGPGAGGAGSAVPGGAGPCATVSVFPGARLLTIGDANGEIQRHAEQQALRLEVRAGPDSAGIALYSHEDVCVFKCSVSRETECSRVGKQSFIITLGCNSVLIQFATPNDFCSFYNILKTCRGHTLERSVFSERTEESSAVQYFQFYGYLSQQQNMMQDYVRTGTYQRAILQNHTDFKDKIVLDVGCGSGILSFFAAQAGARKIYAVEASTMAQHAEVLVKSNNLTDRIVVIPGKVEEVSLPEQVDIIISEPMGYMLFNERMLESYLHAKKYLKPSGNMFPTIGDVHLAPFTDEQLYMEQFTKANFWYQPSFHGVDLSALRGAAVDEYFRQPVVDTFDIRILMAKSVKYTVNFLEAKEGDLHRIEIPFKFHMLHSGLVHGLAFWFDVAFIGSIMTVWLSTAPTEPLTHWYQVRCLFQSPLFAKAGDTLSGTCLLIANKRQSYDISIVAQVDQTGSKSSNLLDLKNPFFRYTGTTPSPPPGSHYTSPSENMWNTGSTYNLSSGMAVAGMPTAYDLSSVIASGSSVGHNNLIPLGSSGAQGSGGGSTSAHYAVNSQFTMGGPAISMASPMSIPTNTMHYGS
Nature of the series: CARM1 histone methyltransferase (biochemical) assay. The conditions noted are these: for IC50: 30 min preincubation, IC50 measured at 120 minutes. The protocol: CARM1 activity was measured as previously reported for the histone methyltransferases PRMT1/6/8[65] and PRMT5[58]. Briefly, CARM1 was preincubated with compounds for 30 minutes at room temperature before reactions were initiated. […] The assays were quenched by the addition of 300 μM unlabeled SAM. The quantity of ^3H-labeled peptide produced was measured by Flashplate on a Topcount reader. Further details can be found in the Supplementary Methods.
Histone methyltransferase assay
The compounds were preincubated with CARM1 for 30 minutes at room temperature before the reactions were initiated by the addition of substrates. […]
containing 20 mM bicine, 1 mM tris(2-carbox yethyl)phosphine, 0.005% bovine skin gelatin and 0.002% Tween-20, pH 7.5 and 2% DMSO. The peptide sequence was biotin-aminohexanoate- […]
eKS AP-amide, where RMe is a monomethylated arginine residue (21st
Century Biochemicals, Marlboro, MA). After 2 hours, assa ys were quenched b y the addition of 300 μM unlabeled SAM. The reactions were tran sferred to a 384-well Flashplate (Perkin Elmer) and the biotinylated peptides were allowed to bind to the streptavidin surface for at least 1 hour before being washed once with 0.1% Tween 20. The quantit y of 3H-labeled peptide bound to the Flashplate surface was counted on a Topcount reader as counts per minute (cpm). % Inhibition values wer e calculated and IC50 values were fit using the 3 -param eter IC50 equation below:
YY = BBBBBBBBBBBB + (100 − BBBBBBBBBBBB )HHHHHHHH CCCCCCCCCCHHCCHHCCCCCC where top is fixed at 100 or the maximum inhibition plateau , Y is % inhibition and X is […]
IC50 vs [peptide] data were fit to the noncom petitive Cheng- Prusoff […]
The effect of reaction time on compound potency was determined b y meas uring IC50 values from […]
to a one phase exponential deca y equation. […]
activity was measured under standard conditions after a 30 minute preincubation.
IC 50 values were d etermi ned and data wer e anal yz ed using the following eq uation: […]

The test system of series [2] is PABP1, SmB, aDMA and histone H3 methylation in RPMI-8226 cells. Nature of the series: Western blot of cellular methyl marks, RPMI-8226. The format is cell-based, human. To be noted: for IC50: Homo sapiens. (In general: A western blot detects proteins with antibodies after separation by electrophoresis.)
Series [3] concerns asymmetric di-methyl PABP1 in RKO cells. Nature of the series: In cell western (ICW) assay for asymmetric di-methyl PABP1. To be noted: Homo sapiens, 48 h, read-out: CARM1 ICW IC50.
Protocol: In cell w estern assay f or detection of asymmetric di -methyl PABP1 an d DNA content RKO cells (ATCC) were maintained in growth medium (DMEM/Glutamax medium supplemented with 10% v/v heat inactivated fetal bovine serum and 100 units/mL penicillin-streptom ycin) and cultured at 37 °C under 5% CO2. Cells were seeded in assay medium at a concentration of 30,000 cells per m L to a pol y -D-l ys ine coated 384 well culture plate with 50 µ L per well. Compound (100 nL) from a 96-well sou rce plate was add ed directl y to 384 well cell plate. Plates were incubated at 37°C, 5% CO2 for 48 hours. After two da ys of incubation, plates were brought to room temperature outside of the incubator for ten minutes and blotted on paper towels to remove cell media. Cells were fixed for 20 minutes atroom temperature b y adding 50 µl of 8% PFA followed by aspiration of supernatant. Cells were then permeabilized by addition of 50 µ L of i ce cold 100% methanol directl y to each well and incubated for 30 min at room temperature. After 30 min, plates were washed 2 times with 100 µL per well of wash buffer (1X PBS). Next 60 µL per well of Odysse y blocking buffer (Od ysse y Buffer wi th 0.1% Tween 20 (v/v)) were added to each plate and incubat ed 1 hour at room temperature. Blocking buffer was removed and 20 µ L per well of primar y antibod y was added (as ymmetric-methyl PABP1) diluted 1:400 in Odysse y buffer with 0.1% Tween 20 (v/v)) and plates were incubated overni ght (16 hours) at 4°C. Plates were washed 5 times wit h 100 µ L per well of wash buffer. Next 20 µL per well of secondar y ant ibody was added (1:800 800CW goat anti-rabbit IgG (H+L) antibod y, 1:2000 DRAQ5 in Odyss ey buffer with 0.1% Tween 20 (v/v)) and incubated for 1 hour at room temperature. The plates were washed 5 times wit h 100 µ L per well wash buffer then 2 times with 100 µ L per well of w ater . Plates were allowed to dr y at room temper ature t hen imag ed on the Lico r Od ysse y machine. The ratio of as ymmetri c di-methyl PABP1 to DR AQ5 was det ermined for each well and then used to determine percent i nhibition relative to DMSO control. IC 50 curves were generated us ing triplicate wells per concentration of compound.
The nature of series [4]: Pharmacokinetic profiles in mice and rats. The format is in vivo.
Series [5] relates to 20 other diverse HMTs in the Epizyme enzyme panel. Nature of the series: Methyltransferase cross screening panel.
Setting [6] is: read-out: CARM1 Biochemical IC50.

From PMC5740082, “Identification of a CARM1 Inhibitor with Potent In Vitro and In Vivo Activity in Preclinical Models of Multiple Myeloma” (Scientific Reports, 2017) come the findings set out here.

Like-named read-outs stand apart in the source and are kept apart here.

Usually IC50 stands for the midpoint of a concentration-inhibition curve. As for `CNC[C@@H](O)COc1cc(-c2nc(-c3c(C)noc3C)c(C)c(N3CC4(CCN(C(=O)OC)CC4)C3)n2)ccc1Cl` [EPZ029751, methyl 2-(2-(4-chloro-3-((R)-2-hydroxy-3-(methylamino)propoxy)phenyl)-6-(3,5-dimethylisoxazol-4-yl)-5-methylpyrimidin-4-yl)-2,7-diazaspiro[3.5]nonane-7-carboxylate], the “biochemical potency against CARM1 compared with EZM2302” value in series [1] is “much weaker biochemical potency”. Moreover, the IC50 in series [1] (setting [6]) is over 1 µM; in series [2] (96 h, RPMI-8226, four days, 0.0003 to 5 µM, read-out: IC50, SmBme0), over 5 µM; in series [2] (RPMI-8226, 96 h treatment, read-out: IC50, methylation of PABP1 (PABP1me2a)) it was over 5 µM; in series [3], over 6.5 µM. Besides, the changes in methylation result in series [2] (RPMI-8226, four days) is listed as “No robust changes in methylation”.
In the case of `Cn1cnc2ccc(-c3cccc(OCC(O)CN)c3)nc21` (stereo not drawn) [Compound 1], the concentration for half-maximal inhibition (IC50) in series [1] (read-out: CARM1 IC50) was 2.3 ± 0.8 µM; in series [3] it was over 20 µM.
`CNC[C@@H](O)COc1ccc(Cl)c(-c2nc(-c3c(C)noc3C)c(C)c(N3Cc4cnc(N5CCC5)nc4C3)n2)c1` [EPZ025654]: in series [4], the pharmacokinetic profiles entry was “without satisfactory pharmacokinetic profiles”. The figures for the IC50 in series [1] (setting [6]) and in series [3] were 0.003 µM and 0.011 µM, respectively.
Regarding `CC(C)n1ncc2c(N3CCOCC3)cc(-c3cccc(OCC(O)CN)c3)nc21` (stereo not drawn) [Compound 2], in series [1], the “fold more potent against CARM1 than compound 1” value is given as 50 fold. The 50% inhibitory concentration (IC50) in series [1] (setting [6]) came to 0.046 ± 0.009 µM; in series [3], 19 µM. Further, the “selectivity for CARM1 over 20 other diverse HMTs” value in series [5] is given as “more than 100 fold”.
